In patent publication US20260022143A1, “Cyclic Peptide Inhibitors of IL-23” (JANSSEN PHARMACEUTICA NV, priority 2022, published 2026):
Starred links: 1 amine or outer side, 2 acyl side, 3 side chain; linkers in the order of their positions; H or OH if unused. Positions of bridges follow the written chain, without caps; N, C: chain ends. Non-standard residues stand in square brackets, D forms with d. Residues, ends and D or L forms follow the SMILES beside them. ξ: configuration not given here. *: point of attachment. Me3N+(CH2)2O(CH2)2O(CH2)2CO = C[N+](C)(C)CCOCCOCCC(=O)*; CH2CH2OCH2CH2OCH2CH2NMe3+ = C[N+](C)(C)CCOCCOCC*; Trp(7-Me) = Cc1cccc2c(C[C@H](N)C(=O)O)c[nH]c12; Decanoyl(3,6,9-trioxa) = COCCOCCOCC(=O)*; 2Nal = N[C@@H](Cc1ccc2ccccc2c1)C(=O)O; AEF = NCCOc1ccc(C[C@H](N)C(=O)O)cc1; X24 = C[N+](C)(CCN[*:1])CC(=O)[*:2]; X50 = CCCC[N+](CCCC)(CCCC)CCOCCOCC*; X22 = CN1CC[N+](C)(CCOCCOCC*)CC1; 3Pal = N[C@@H](Cc1cccnc1)C(=O)O; ξThr(3R) = C[C@@H](O)C(N)C(=O)O; Lys(Me) = CNCCCC[C@H](N)C(=O)O; Pen = CC(C)(S)[C@H](N)C(=O)O; Thp = NC1(C(=O)O)CCOCC1; Dap = NC[C@H](N)C(=O)O; X3 = C[N+](C)(C)CCCCC*; Me2NCH2CH2 = CN(C)CC*; Sar = CNCC(=O)O

Experiments:
[1] = Exposed Polar Surface Area (EPSA); assay type: physicochemical; conditions: SFC on Chirex 3014 column; sample 1 mM DMSO stock; read-out: EPSA
In short: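 SFC retention on a Chirex 3014 (S-valine/(R)-1-(α-naphthyl)ethylamine) column at 35 °C, 4 mL/min, 14 MPa outlet, 5–60% methanol/20 mM ammonium formate gradient in CO2. Retention times converted to EPSA (Å²) via linear calibration with 8 standards; samples from 1 mM DMSO stock, run in duplicate.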

[2] = molecular target: T1, IL-23R (Homo sapiens, UniProt Q5VWK5); assay: IL23R Reporter Assay; assay type: cell-based; conditions: HEK293 cells containing IL-23R, IL-12RP1 and STAT-inducible firefly luciferase reporter; 10 ng/mL IL-23 (EC90); 5 h at 37° C.; read-out: IL23R Reporter Assay
T1 construct: host or cells: HEK293
T1 sequence (Q5VWK5 24-629): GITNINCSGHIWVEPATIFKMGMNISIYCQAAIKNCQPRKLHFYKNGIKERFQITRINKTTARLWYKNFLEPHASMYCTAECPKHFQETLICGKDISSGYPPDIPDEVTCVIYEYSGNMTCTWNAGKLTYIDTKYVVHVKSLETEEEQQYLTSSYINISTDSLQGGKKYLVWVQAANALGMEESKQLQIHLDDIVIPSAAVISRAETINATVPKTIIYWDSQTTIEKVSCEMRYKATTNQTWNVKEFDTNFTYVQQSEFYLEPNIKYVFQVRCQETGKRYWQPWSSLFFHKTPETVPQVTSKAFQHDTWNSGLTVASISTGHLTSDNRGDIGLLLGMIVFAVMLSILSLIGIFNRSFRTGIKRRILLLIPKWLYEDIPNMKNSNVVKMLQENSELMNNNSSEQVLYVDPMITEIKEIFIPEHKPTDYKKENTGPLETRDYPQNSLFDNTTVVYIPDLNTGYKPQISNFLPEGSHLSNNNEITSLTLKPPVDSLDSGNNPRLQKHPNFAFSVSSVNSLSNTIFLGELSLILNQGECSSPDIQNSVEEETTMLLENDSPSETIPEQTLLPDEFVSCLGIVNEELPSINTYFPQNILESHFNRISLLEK

SMILES	EPSA [1] [A^2]	IC50 [2] [nM]
CC(=O)N(C)CCCC[C@@H]1NC(=O)[C@H](Cc2c[nH]c3c(C)cccc23)NC(=O)[C@H](C)NC(=O)[C@H](CC(=O)N(C)C)NC(=O)[C@@H](NC(=O)CCOCCOCC[N+](C)(C)C)C(C)(C)SSC(C)(C)[C@@H](C(=O)N[C@@H](Cc2ccc(OCCCCC[N+](C)(C)C)cc2)C(=O)N[C@@H](Cc2ccc3ccccc3c2)C(=O)NC2(C(=O)N[C@@H](CCCCN(C)C(C)=O)C(=O)N[C@@H](CC(N)=O)C(=O)N[C@@H](Cc3cccnc3)C(=O)N(C)CC(=O)N(C)C)CCOCC2)NC1=O [compound 494, cPEG3aCO-Pen(3)-N(N(Me)2)-A-7MeW-K(NMeAc)-Pen(3)-TMAPF-2Nal-THP-K(NMeAc)-N-3Pya-Sar-CON(Me)2] ({Me3N+(CH2)2O(CH2)2O(CH2)2CO}-[Pen]D(NMe2)A[Trp(7-Me)][Lys(Me)](Ac)[Pen]Y(X3)[2Nal][Thp][Lys(Me)](Ac)N[3Pal][Sar]-NMe2; disulfide 1-6)	133	12
CC(=O)N(C)CCCC[C@@H]1NC(=O)[C@H](Cc2c[nH]c3c(C)cccc23)NC(=O)[C@H]([C@@H](C)O)NC(=O)[C@H](CC(=O)N(C)C)NC(=O)[C@@H](NC(=O)CCOCCOCC[N+](C)(C)C)C(C)(C)SSC(C)(C)[C@@H](C(=O)N[C@@H](Cc2ccc(OCCN)cc2)C(=O)N[C@@H](Cc2ccc3ccccc3c2)C(=O)NC2(C(=O)N[C@@H](CCN(C)C(C)=O)C(=O)N[C@@H](CC(N)=O)C(=O)N[C@@H](Cc3cccnc3)C(=O)N(C)CC(=O)N(C)C)CCC(F)(F)C2)NC1=O (single isomer, unassigned) [compound 179, cPEG3aCO-Pen(3)-N(N(Me)2)-T-7MeW-K(NMeAc)-Pen(3)-AEF-2Nal-diFCpx-Dab(NMeAc)-N-3Pya-Sar-CON(Me)2]	147	3
CC(=O)NCCCC[C@@H]1NC(=O)[C@H](Cc2c[nH]c3c(C)cccc23)NC(=O)[C@H]([C@@H](C)O)NC(=O)[C@H](CC(N)=O)NC(=O)[C@@H](NC(C)=O)C(C)(C)SSC(C)(C)[C@@H](C(=O)N[C@@H](Cc2ccc(OCCCCC[N+](C)(C)C)cc2)C(=O)N[C@@H](Cc2ccc3ccccc3c2)C(=O)NC2(C(=O)N[C@@H](CCCCNC(=O)COc3ccc(-c4ccc(F)cc4F)cc3C(=O)O)C(=O)N[C@@H](CC(N)=O)C(=O)N[C@@H](Cc3cccnc3)C(=O)N(C)CC(N)=O)CCOCC2)NC1=O [compound 526, MeCO-Pen(3)-N-T-7MeW-K(Ac)-Pen(3)-TMAPF-2Nal-THP-K(DFN)-N-3Pya-Sar-CONH2]	184	6.1
CC(=O)NC[C@H](NC(=O)C1(NC(=O)[C@H](Cc2ccc3ccccc3c2)NC(=O)[C@H](Cc2ccc(OCCN(C)C)cc2)NC(=O)[C@H]2NC(=O)[C@H](CCCCN(C)C(C)=O)NC(=O)[C@H](Cc3c[nH]c4c(C)cccc34)NC(=O)[C@H]([C@@H](C)O)NC(=O)[C@H](CC(=O)N(C)C)NC(=O)[C@@H](NC(C)=O)C(C)(C)SSC2(C)C)CCOCC1)C(=O)N[C@@H](CC(N)=O)C(=O)N[C@@H](Cc1cccnc1)C(=O)N(C)CC(=O)N(C)C [compound 98, MeCO-Pen(3)-N(N(Me)2)-T-7MeW-K(NMeAc)-Pen(3)-AEF(N(Me)2)-2Nal-THP-Dap(Ac)-N-3Pya-Sar-CON(Me)2] (Ac-[Pen]D(NMe2)T[Trp(7-Me)][Lys(Me)](Ac)[Pen]Y(Me2NCH2CH2)[2Nal][Thp][Dap](Ac)N[3Pal][Sar]-NMe2; disulfide 1-6)	139	4.6
COCCOCCOCC(=O)NCC[N+](C)(C)CC(=O)N[C@@H]1C(=O)N[C@@H](CC(=O)N(C)C)C(=O)N[C@@H]([C@@H](C)O)C(=O)N[C@@H](Cc2c[nH]c3c(C)cccc23)C(=O)N[C@@H](CCC(=O)N(C)C)C(=O)N[C@H](C(=O)N[C@@H](Cc2ccc(OCCN)cc2)C(=O)N[C@@H](Cc2ccc3ccccc3c2)C(=O)NC2(C(=O)N[C@@H](CCC(=O)N(C)C)C(=O)N[C@@H](CC(N)=O)C(=O)N[C@@H](Cc3cccnc3)C(=O)N(C)CC(N)=O)CCOCC2)C(C)(C)SSC1(C)C [compound 146, mPEG3CO-SP6-Pen(3)-N(N(Me)2)-T-7MeW-Q(N(Me)2)-Pen(3)-AEF-2Nal-THP-Q(N(Me)2)-N-3Pya-Sar-CONH2] ({Decanoyl(3,6,9-trioxa)}-[X24][Pen]D(NMe2)T[Trp(7-Me)]E(NMe2)[Pen][AEF][2Nal][Thp]E(NMe2)N[3Pal][Sar]-NH2; disulfide 2-7)	152	3.8
CCCC[N+](CCCC)(CCCC)CCOCCOCCOc1ccc(C[C@H](NC(=O)[C@H]2NC(=O)[C@H](CCCCN(C)C(C)=O)NC(=O)[C@H](Cc3c[nH]c4c(C)cccc34)NC(=O)[C@H]([C@@H](C)O)NC(=O)[C@H](CC(=O)N(C)C)NC(=O)[C@@H](NC(=O)CCOCCOCC[N+](C)(C)C)C(C)(C)SSC2(C)C)C(=O)N[C@@H](Cc2ccc3ccccc3c2)C(=O)NC2(C(=O)N[C@@H](CCCCN(C)C(C)=O)C(=O)N[C@@H](CC(N)=O)C(=O)N[C@@H](Cc3cccnc3)C(=O)N(C)CC(=O)N(C)C)CCOCC2)cc1 [compound 263, cPEG3aCO-Pen(3)-N(N(Me)2)-T-7MeW-K(NMeAc)-Pen(3)-TBAPEG3F-2Nal-THP-K(NMeAc)-N-3Pya-Sar-CON(Me)2] ({Me3N+(CH2)2O(CH2)2O(CH2)2CO}-[Pen]D(NMe2)T[Trp(7-Me)][Lys(Me)](Ac)[Pen]Y(X50)[2Nal][Thp][Lys(Me)](Ac)N[3Pal][Sar]-NMe2; disulfide 1-6 (inferred))	140	5
CC(=O)N(C)CCCC[C@@H]1NC(=O)[C@H](Cc2c[nH]c3c(C)cccc23)NC(=O)[C@H]([C@@H](C)O)NC(=O)[C@H](CC(=O)N(C)C)NC(=O)[C@@H](NC(=O)CCOCCOCC[N+](C)(C)C)C(C)(C)SSC(C)(C)[C@@H](C(=O)N[C@@H](Cc2ccc(OCCOCCOCC[N+](C)(C)C)cc2)C(=O)N[C@@H](Cc2ccc3ccccc3c2)C(=O)NC2(C(=O)N[C@@H](Cc3ccccc3)C(=O)N[C@@H](CC(N)=O)C(=O)N[C@@H](Cc3cccnc3)C(=O)N(C)CC(=O)N(C)C)CCOCC2)NC1=O [compound 469, cPEG3aCO-Pen(3)-N(N(Me)2)-T-7MeW-K(NMeAc)-Pen(3)-APEG3F-2Nal-THP-F-N-3Pya-Sar-CON(Me)2] ({Me3N+(CH2)2O(CH2)2O(CH2)2CO}-[Pen]D(NMe2)T[Trp(7-Me)][Lys(Me)](Ac)[Pen]Y(CH2CH2OCH2CH2OCH2CH2NMe3+)[2Nal][Thp]FN[3Pal][Sar]-NMe2; disulfide 1-6)	156	2.1
CC(=O)N(C)CCCC[C@H](NC(=O)[C@H](CC(C)C)NC(=O)[C@H](Cc1ccc2ccccc2c1)NC(=O)[C@H](Cc1ccc(OCCCCC[N+](C)(C)C)cc1)NC(=O)[C@H]1NC(=O)[C@H](CCCCN(C)C(C)=O)NC(=O)[C@H](Cc2c[nH]c3c(C)cccc23)NC(=O)C([C@@H](C)O)NC(=O)[C@H](CC(=O)N(C)C)NC(=O)[C@@H](NC(=O)CCOCCOCC[N+](C)(C)C)C(C)(C)SSC1(C)C)C(=O)N[C@@H](CC(N)=O)C(=O)N[C@@H](Cc1cccnc1)C(=O)N(C)CC(=O)N(C)C (stereo partly drawn) [compound 487, cPEG3aCO-Pen(3)-N(N(Me)2)-T-7MeW-K(NMeAc)-Pen(3)-TMAPf-2Nal-L-K(NMeAc)-N-3Pya-Sar-CON(Me)2] ({Me3N+(CH2)2O(CH2)2O(CH2)2CO}-[Pen]D(NMe2)[ξThr(3R)][Trp(7-Me)][Lys(Me)](Ac)[Pen]Y(X3)[2Nal]L[Lys(Me)](Ac)N[3Pal][Sar]-NMe2; disulfide 1-6)	164	3.4
CC(=O)N[C@@H]1C(=O)N[C@@H](CC(=O)N(C)C)C(=O)N[C@@H]([C@@H](C)O)C(=O)N[C@@H](Cc2c[nH]c3c(C)cccc23)C(=O)N[C@H](COCCOCC[N+](C)(C)C)C(=O)N[C@H](C(=O)N[C@@H](Cc2ccc(OCCOCCOCC[N+](C)(C)C)cc2)C(=O)N[C@@H](Cc2ccc3ccccc3c2)C(=O)NC2(C(=O)N[C@@H](COCCOCC[N+](C)(C)C)C(=O)N[C@@H](CC(N)=O)C(=O)N[C@@H](Cc3cccnc3)C(=O)N(C)CC(=O)N(C)C)CCOCC2)C(C)(C)SSC1(C)C (relative stereo) [compound 255, MeCO-Pen(3)-N(N(Me)2)-T-7MeW-APEG2Ser(R*)-Pen(3)-APEG3F-2Nal-THP-APEG2Ser(S*)-N-3Pya-Sar-CON(Me)2]	141	22
CC(=O)NCCCC[C@@H]1NC(=O)[C@H](Cc2c[nH]c3c(C)cccc23)NC(=O)[C@H]([C@@H](C)O)NC(=O)[C@H](CC(N)=O)NC(=O)[C@@H](NC(C)=O)C(C)(C)SSC(C)(C)[C@@H](C(=O)N[C@@H](Cc2ccc(OCCOCCOCC[N+]3(C)CCN(C)CC3)cc2)C(=O)N[C@@H](Cc2ccc3ccccc3c2)C(=O)NC2(C(=O)N[C@@H](CCCCNC(C)=O)C(=O)N[C@@H](CC(N)=O)C(=O)N[C@@H](Cc3cccnc3)C(=O)N(C)CC(N)=O)CCOCC2)NC1=O [compound 434] (Ac-[Pen]NT[Trp(7-Me)]K(Ac)[Pen]Y(X22)[2Nal][Thp]K(Ac)N[3Pal][Sar]-NH2; disulfide 1-6 (inferred))	156	3.1
